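Test compounds were applied to cells in 96-well plates for 48 hours at 5 doses. The concentration for 50% growth inhibition is given as GI50. TGI: concentration producing complete growth inhibition.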
Key:
Test in all cases: NCI anticancer screen, dose series, 48 h
SK-MEL-5 melanoma = system: SK-MEL-5 melanoma
NCI-H460 lung = system: NCI-H460 lung
T-47D breast = system: T-47D breast
SF-539 CNS = system: SF-539 CNS
OVCAR-3 ovarian = system: OVCAR-3 ovarian
PC-3 prostate = system: PC-3 prostate
UACC-257 melanoma = system: UACC-257 melanoma
CCRF-CEM leukemia = system: CCRF-CEM leukemia
KM12 colon = system: KM12 colon
NCI/ADR-RES ovarian = system: NCI/ADR-RES ovarian

| Compound | TGI (SK-MEL-5 melanoma) | TGI (NCI-H460 lung) | TGI (T-47D breast) | TGI (SF-539 CNS) | TGI (OVCAR-3 ovarian) | TGI (PC-3 prostate) | TGI (UACC-257 melanoma) | GI50 (SK-MEL-5 melanoma) | GI50 (CCRF-CEM leukemia) | TGI (CCRF-CEM leukemia) | GI50 (NCI-H460 lung) | GI50 (T-47D breast) | GI50 (KM12 colon) | TGI (KM12 colon) | GI50 (OVCAR-3 ovarian) | GI50 (PC-3 prostate) | GI50 (NCI/ADR-RES ovarian) | TGI (NCI/ADR-RES ovarian) | GI50 (UACC-257 melanoma) | GI50 (SF-539 CNS) |
| --- | --- | --- | --- | --- | --- | --- | --- | --- | --- | --- | --- | --- | --- | --- | --- | --- | --- | --- | --- | --- |
| OC1CSCCSCCCSCCSC1 | > 100 µM | > 100 µM | > 100 µM | > 100 µM | > 100 µM | > 100 µM | > 100 µM | – | – | – | – | – | – | – | – | – | – | – | – | – |
| COC(=O)c1ccc2c(c1)C(=O)c1c-2n(CCCCl)c(=O)c2cc(OC)c(OC)cc12 | > 100 µM | > 100 µM | > 100 µM | – | > 100 µM | > 100 µM | > 100 µM | > 100 µM | > 100 µM | > 100 µM | > 100 µM | > 100 µM | > 100 µM | > 100 µM | > 100 µM | > 100 µM | > 100 µM | > 100 µM | > 100 µM | – |
| CCN(CC)CCCNc1c2ccc(Cl)cc2nc2ccc(OC)cc12 | 3.02 µM | 1.34 µM | – | – | – | – | 3.41 µM | 1.64 µM | 0.0473 µM | 3.67 µM | 0.0326 µM | – | 0.0541 µM | 4.45 µM | – | – | – | – | 1.83 µM | – |
| CCOC(=O)COc1cccc2occc(=O)c12 | > 100 µM | > 100 µM | – | > 100 µM | > 100 µM | – | > 100 µM | – | – | > 100 µM | – | – | – | > 100 µM | – | – | – | – | – | – |
| Cc1ccc(-c2nc(C(Cl)Cl)nc3cc(C)nn23)cc1 | > 100 µM | 3.01 µM | > 100 µM | > 100 µM | 3.42 µM | > 100 µM | > 100 µM | 3.5 µM | 4.82 µM | > 100 µM | 0.515 µM | 2.86 µM | – | – | 1.47 µM | 2.55 µM | 1.18 µM | 5.73 µM | 3.26 µM | 4.14 µM |
| CN1CC[C@]23c4c5ccc(O)c4OC2c2[nH]ncc2C[C@H]3[C@H]1C5 (stereo partly drawn) | > 100 µM | > 100 µM | > 100 µM | – | > 100 µM | > 100 µM | > 100 µM | – | – | > 100 µM | – | – | – | > 100 µM | – | – | – | > 100 µM | – | – |
| Nc1nc(-c2ccccc2)cc(-c2cc(Cl)ccc2O)n1 | – | > 100 µM | – | > 100 µM | 94.4 µM | – | > 100 µM | – | – | > 100 µM | – | – | – | > 100 µM | – | – | – | – | – | – |
| O=S(=O)(Cc1ccccc1)SCc1ccccc1 | 48.5 µM | > 83.8 µM | – | 37.8 µM | 58.5 µM | – | 76 µM | – | – | > 27.5 µM | – | – | – | > 100 µM | – | – | – | – | – | – |
| CC(=O)OC1COC(Oc2c(C)c3c4c(c2O)[C@@H](C)CC[C@@H]4[C@@H](C)C[C@H]3C=C(C)C)C(O)C1O (stereo partly drawn) | 34.1 µM | 52.2 µM | > 100 µM | – | 31.3 µM | 31.1 µM | – | 16.4 µM | 11.1 µM | 35.6 µM | 16.2 µM | 33.2 µM | 17.7 µM | 33.8 µM | 16.1 µM | 14.4 µM | 15.3 µM | 31.3 µM | – | – |

— PubChem BioAssay (NCI)
